In patent US10131663B2, “Chemical compounds” (AstraZeneca AB, priority 2016, dated 2018):
Converted amounts (≈) assume the structure as drawn.

Assays:
[1] = molecular target: recombinant human Estrogen Receptor alpha ligand binding domain (ER alpha-LBD (GST)) (Homo sapiens (Human), UniProt P03372); experiment: ERα binding assay (LanthaScreen TR-FRET competition); conditions: TR-FRET, displacement of Fluormone ES2
In short: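 Competition binding to GST-tagged human ERα ligand-binding domain, read by LanthaScreen TR-FRET: Tb-anti-GST antibody labels the receptor and compounds displace a fluorescent tracer, lowering the signal. IC50 was taken from dose-response curve fitting.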

[2] = molecular target: T1, Estrogen Receptor (ERα) in MCF-7 cells (Homo sapiens (Human), UniProt P03372); experiment: MCF-7 ER down-regulation assay (immuno-fluorescence); assay type: cell-based
T1 sequence (P03372 whole entry): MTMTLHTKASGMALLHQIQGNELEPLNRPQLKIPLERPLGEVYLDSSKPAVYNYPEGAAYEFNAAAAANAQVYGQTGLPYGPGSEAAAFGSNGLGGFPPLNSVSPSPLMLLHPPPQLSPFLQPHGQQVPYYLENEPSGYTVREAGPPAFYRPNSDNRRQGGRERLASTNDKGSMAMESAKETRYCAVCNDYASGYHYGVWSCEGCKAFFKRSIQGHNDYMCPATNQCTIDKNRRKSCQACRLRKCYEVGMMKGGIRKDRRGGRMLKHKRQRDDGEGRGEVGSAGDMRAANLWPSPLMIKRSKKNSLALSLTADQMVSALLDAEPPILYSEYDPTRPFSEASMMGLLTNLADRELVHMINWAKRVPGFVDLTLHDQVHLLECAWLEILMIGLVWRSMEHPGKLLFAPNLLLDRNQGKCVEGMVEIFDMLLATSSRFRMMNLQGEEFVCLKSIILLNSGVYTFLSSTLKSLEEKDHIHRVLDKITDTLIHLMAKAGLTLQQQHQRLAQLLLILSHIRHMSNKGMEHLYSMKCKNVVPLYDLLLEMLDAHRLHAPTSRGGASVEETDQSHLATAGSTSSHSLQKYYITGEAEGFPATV
In short: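 Compounds dispensed acoustically from DMSO stocks onto MCF-7 cells; cells fixed 20 min at room temperature, then automated immunostaining for ERα with overnight incubation at 4° C. Read-out is mean total ER fluorescence intensity normalized to cell number (intensity per cell), with curve fitting for concentration-response values.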

[3] = molecular target: estrogen receptor (ERα) in CAMA-1 cells (Homo sapiens (Human), UniProt P03372); experiment: Western blotting assay, ER down-regulation in CAMA-1; assay type: cell-based; conditions: 100 nM compound, 48 h, normalised to 100 nM fulvestrant
Chain of estrogen receptor (ERα) in CAMA-1 cells (P03372 whole entry): as above
In short: (§1)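 Cells treated with compounds at 100 nM or 0.1% DMSO vehicle for 48 h at 37 °C, then lysed; ERα detected by western blot with anti-ERα (SP1) rabbit monoclonal. Down-regulation normalised to vehicle (0%) and 100 nM fulvestrant (100%) run on the same gel.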

[4] = molecular target: T1, Estrogen Receptor (ERα) in MCF-7 cells; experiment: Western blotting assay, ER down-regulation in MCF-7; assay type: cell-based; conditions: 100 nM compound, 48 h, normalised to 100 nM fulvestrant
In short: as §1

[5] = log D (shake flask, 1-octanol/aqueous buffer); assay type: physicochemical; conditions: pH 7.4, 1-octanol/aqueous buffer
In short: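 Distribution between 1-octanol and aqueous buffer at pH 7.4 was measured by shake flask, with compounds run in mixtures of ten. Relative concentrations in each phase were quantified by UPLC with quantitative MS. Caffeine served as a low-log D QC sample in all runs.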

[6] = Thermodynamic solubility (shake-flask); assay type: physicochemical; conditions: aqueous phosphate buffer, 25 °C, pH 7.4, aqueous buffer, thermodynamic from solid, aqueous phosphate buffer pH 7.4, 24 hours
In short: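 Shake-flask method starting from 10 mM DMSO stocks, which are dried before use. Residue equilibrated 24 h at 25° C. in aqueous phosphate buffer, pH 7.4. Dissolved fraction separated and quantified by UPLC/MS/MS, with QC samples in each run.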

[7] = Human plasma protein binding (equilibrium dialysis); assay type: in vitro ADME; conditions: dialysis 18 hours
In short: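 Fraction unbound (fu %) in human plasma, from LC/MSMS of plasma and buffer sides (7-point plasma calibration) after 18 h rapid equilibrium dialysis. Single determinations, with compounds pooled up to 10 per plasma pool.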

[8] = Human Caco-2 bidirectional permeability A to B and B to A; assay type: in vitro ADME; conditions: for Papp at 2 h: Caco-2, 2 hours, pH 7.4; for efflux ratio at 2 h: Caco-2, pH 7.4

Chain of recombinant human Estrogen Receptor alpha ligand binding domain (ER alpha-LBD (GST)) (P03372 307-554): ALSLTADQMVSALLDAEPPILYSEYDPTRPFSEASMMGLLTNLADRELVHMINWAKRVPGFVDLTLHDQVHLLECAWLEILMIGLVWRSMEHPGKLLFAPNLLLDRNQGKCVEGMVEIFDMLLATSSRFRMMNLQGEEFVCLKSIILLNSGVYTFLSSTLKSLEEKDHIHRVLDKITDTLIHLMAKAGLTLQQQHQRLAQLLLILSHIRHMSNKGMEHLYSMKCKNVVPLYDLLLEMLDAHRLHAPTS

Compound | IC50 [1] | IC50 [2] | CAMA1 Western % ER deg vs Fv [3] | MCF7 Western % ER deg vs Fv [4] | logD [5] | solubility at 24 h [6] | Human plasma protein binding (% free) [7] | Papp at 2 h [8] | efflux ratio at 2 h [8]
COc1cc(NC2CN(CCCF)C2)ccc1[C@@H]1c2ccc3[nH]ncc3c2C[C@@H](C)N1CC(C)(C)F [Example 64, N-(4-((6S,8R)-7-(2-fluoro-2-methylpropyl)-8-methyl-6,7,8,9-tetrahydro-3H-pyrazolo[4,3-f]isoquinolin-6-yl)-3-methoxyphenyl)-1-(3-fluoropropyl)azetidin-3-amine] | 6.1 nM | 0.22 nM | 89% | 86% | 3.2 | 474 µM (≈ 236 µg/mL) | 14 % free | 2 ×10⁻⁶ cm/s | 5.6
COc1cc(NC2CN(CCCF)C2)ccc1[C@@H]1c2ccc3[nH]ncc3c2C[C@@H](C)N1CC1(F)CC1 [Example 6, N-(4-((6S,8R)-7-((1-fluorocyclopropyl)methyl)-8-methyl-6,7,8,9-tetrahydro-3H-pyrazolo[4,3-f]isoquinolin-6-yl)-3-methoxyphenyl)-1-(3-fluoropropyl)azetidin-3-amine] | 8.8 nM | 0.35 nM | 84% | 89% | 2.4 | > 947 µM | 34 % free | 0.9 ×10⁻⁶ cm/s | 28
C[C@@H]1Cc2c(ccc3[nH]ncc23)[C@@H](c2ncc(NC3CN(CCCF)C3)cc2F)N1CC(F)(F)F [Example 30, 5-fluoro-N-(1-(3-fluoropropyl)azetidin-3-yl)-6-((6S,8R)-8-methyl-7-(2,2,2-trifluoroethyl)-6,7,8,9-tetrahydro-3H-pyrazolo[4,3-f]isoquinolin-6-yl)pyridin-3-amine] | 1.8 nM | 0.28 nM | 98% | 96% | 3 | 754 µM (≈ 373 µg/mL) | 16 % free | 2.7 ×10⁻⁶ cm/s | 7.8
COc1cc(NC2CN(CCCF)C2)ccc1[C@@H]1c2ccc3[nH]ncc3c2C[C@@H](C)N1CC(F)(F)F [Example 28, 1-(3-fluoropropyl)-N-(3-methoxy-4-((6S,8R)-8-methyl-7-(2,2,2-trifluoroethyl)-6,7,8,9-tetrahydro-3H-pyrazolo[4,3-f]isoquinolin-6-yl)phenyl)azetidin-3-amine] | 5.7 nM | 0.065 nM | 110% | 95% | 3.6 | 150 µM (≈ 75.8 µg/mL) | 6 % free | 1.2 ×10⁻⁶ cm/s | 3.8
C[C@@H]1Cc2c(ccc3[nH]nc(F)c23)[C@@H](c2ncc(NC3CN(CCCF)C3)cc2F)N1CC(F)(F)F [Example 33, 5-Fluoro-6-((6S,8R)-1-fluoro-8-methyl-7-(2,2,2-trifluoroethyl)-6,7,8,9-tetrahydro-3H-pyrazolo[4,3-f]isoquinolin-6-yl)-N-(1-(3-fluoropropyl)azetidin-3-yl)pyridin-3-amine] | 1.4 nM | 0.1 nM | 102% | 98% | 3.6 | 466 µM (≈ 239 µg/mL) | 5.4 % free | 2.6 ×10⁻⁶ cm/s | 1.5
